Molecular target: T1, rPSTG (recombinant PSTG, STG-hydrolyzing β-glucosidase) (Paenibacillus relictisesami, UniProt D6RVX0)
T1 construct: full-length 753 aa, 83,298 Da, no signal peptide; expressed from pDEST17 in E. coli BL21-AI, HisTrap purified (tag cleavage not mentioned); likely tetramer, 310 kDa; GH3
T1 sequence (D6RVX0 1-753): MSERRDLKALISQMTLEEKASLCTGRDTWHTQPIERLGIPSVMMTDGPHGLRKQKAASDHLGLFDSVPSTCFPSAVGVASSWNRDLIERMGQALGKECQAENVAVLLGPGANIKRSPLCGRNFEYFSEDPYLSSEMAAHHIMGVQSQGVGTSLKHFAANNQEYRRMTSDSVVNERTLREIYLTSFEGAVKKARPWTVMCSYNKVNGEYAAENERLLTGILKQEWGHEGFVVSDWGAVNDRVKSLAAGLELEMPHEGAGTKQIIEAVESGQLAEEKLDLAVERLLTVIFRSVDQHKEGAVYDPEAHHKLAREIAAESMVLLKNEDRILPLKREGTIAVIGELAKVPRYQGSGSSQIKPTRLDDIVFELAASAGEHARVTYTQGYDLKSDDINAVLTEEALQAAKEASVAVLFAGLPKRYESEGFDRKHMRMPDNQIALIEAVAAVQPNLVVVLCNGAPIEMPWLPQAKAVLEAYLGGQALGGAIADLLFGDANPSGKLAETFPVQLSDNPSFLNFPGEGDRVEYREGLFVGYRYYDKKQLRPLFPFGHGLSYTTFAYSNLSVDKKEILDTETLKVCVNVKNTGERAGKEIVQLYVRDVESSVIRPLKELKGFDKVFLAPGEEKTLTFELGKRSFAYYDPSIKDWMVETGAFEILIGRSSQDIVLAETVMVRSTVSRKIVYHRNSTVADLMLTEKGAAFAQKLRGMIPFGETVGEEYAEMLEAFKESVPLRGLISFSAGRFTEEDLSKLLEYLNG
Test: p-nitrophenol release, absorbance at […] nm
Assay type: biochemical
Settings: pH 7.0, 37°C, potassium phosphate

With `C[C@H]1O[C@@H](Oc2ccc([N+](=O)[O-])cc2)[C@H](O)[C@@H](O)[C@H]1O` [pNP-β-D-fucopyranoside] the Km was greater than 10 mM.

Reference: article PMC3622683, “Purification, Gene Cloning, and Biochemical Characterization of a β-Glucosidase Capable of Hydrolyzing Sesaminol Triglucoside from Paenibacillus sp. KB0549” (PLoS ONE, 2013)
